Patent US9726659B2, “CMPF as a biomarker for diabetes and associated methods” (The Governing Council of the University of Toronto, priority 2012, dated 2017)

Assays:
primary murine islets = experiment: Glucose- and KCl-stimulated insulin secretion in primary murine islets; assay type: cell-based; conditions: 200 uM
Protocol: LG=2.8 mM glucose, HG=16.7 mM glucose, KCl=16.7 mM glucose+30 mM KCl. *p<0.05.
Since beta cell failure is a major underlying cause of both GDM and T2D, the effect of increased CMPF on beta cell function was investigated both in vitro and in vivo. Using physiological concentrations of CMPF (20 uM and 200 uM, as observed in our NGT-pregnant and GDM-pregnant samples respectively (FIG. 2)), as well as a vehicle control (EtOH), its effect was studied on glucose-stimulated insulin secretion (GSIS) and insulin secretion in response to direct depolarization using the secretagogue KCl in an immortalized murine beta cell line (MIN6), as well as primary isolated human and murine islets (FIG. 3A). […] Therefore, high physiologically relevant levels of CMPF impair GSIS.

albumin = albumin (Homo sapiens, UniProt P02768); conditions: cited from earlier work
MIN6 = experiment: Total insulin content in MIN6 cells; assay type: cell-based, murine; conditions: 200 uM, 4 hrs, vs vehicle
Protocol: In the absence of apoptosis and necrosis, CMPF must be impairing GSIS by causing beta cell dysfunction. First, the effect of CMPF treatment on insulin biosynthesis was investigated to determine if insulin is available to be released upon stimulation. MIN6, murine and human islets were treated with vehicle control, 20 uM and 200 uM CMPF for 4 hrs (MIN6) or 24 hrs (islets), and total insulin content measured. […] Lower total insulin content may be due to either defective insulin processing from proinsulin to mature insulin, or insufficient insulin transcription. To determine the mechanism through which CMPF is reducing total insulin content, quantitative PCR (qPCR) was performed on RNA that was isolated from murine islets treated with either vehicle control or 200 uM CMPF for 24 hrs.

albumin, sequence (P02768 25-609, species assumed): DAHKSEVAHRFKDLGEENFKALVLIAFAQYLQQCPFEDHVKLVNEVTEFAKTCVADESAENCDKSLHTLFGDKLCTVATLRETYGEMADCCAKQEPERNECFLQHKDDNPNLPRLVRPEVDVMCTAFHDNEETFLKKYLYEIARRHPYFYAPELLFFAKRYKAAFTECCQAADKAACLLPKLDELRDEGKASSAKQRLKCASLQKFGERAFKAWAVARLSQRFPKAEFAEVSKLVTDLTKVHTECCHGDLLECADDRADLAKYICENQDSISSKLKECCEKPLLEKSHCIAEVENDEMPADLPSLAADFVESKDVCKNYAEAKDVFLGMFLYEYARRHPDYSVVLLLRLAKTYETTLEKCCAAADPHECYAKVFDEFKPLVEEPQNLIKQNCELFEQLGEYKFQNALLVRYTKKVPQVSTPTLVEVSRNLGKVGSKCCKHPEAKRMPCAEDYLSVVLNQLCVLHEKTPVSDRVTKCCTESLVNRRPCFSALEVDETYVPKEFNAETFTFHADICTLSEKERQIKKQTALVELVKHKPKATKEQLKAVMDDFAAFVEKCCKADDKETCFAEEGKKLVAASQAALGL

## CCCc1oc(CCC(=O)O)c(C(=O)O)c1C [CMPF, 3-carboxy-4-methyl-5-propyl-2-furanpropanoic acid]
Primary murine islets; 24 hour pre-incubation, vs vehicle and 20 uM
  GSIS: impairs GSIS
Primary murine islets; CD1 mouse islets, 24 hours
  glucose- and KCl-stimulated insulin secretion: significantly impaired
albumin
  albumin binding: highly albumin-bound
MIN6
  total insulin content: significantly reduced
